{"source": "ChEMBL document CHEMBL4138123", "about": "“Design, synthesis and biological evaluation of novel pyrazolochalcones as potential modulators of PI3K/Akt/mTOR pathway and inducers of apoptosis in breast cancer cells” (Eur J Med Chem, 2017)", "assay_type_in_all_cases": "functional", "key": {"HL-60(TB) [1]": {"system": "HL-60(TB)", "experiment": "Cytotoxicity against human HL-60(TB) cells assessed as growth inhibition after 48 hrs by sulforhodamine B assay", "details": "HL-60, 48 h"}, "HCC 2998": {"system": "HCC 2998", "experiment": "Cytotoxicity against human HCC2998 cells assessed as growth inhibition after 48 hrs by sulforhodamine B assay", "details": "HCC 2998, 48 h"}, "SNB-19": {"system": "SNB-19", "experiment": "Cytotoxicity against human SNB19 cells assessed as growth inhibition after 48 hrs by sulforhodamine B assay", "details": "SNB-19, 48 h"}, "SK-OV-3": {"system": "SK-OV-3", "experiment": "Cytotoxicity against human SKOV3 cells assessed as growth inhibition after 48 hrs by sulforhodamine B assay", "details": "SK-OV-3, 48 h"}, "UO-31 [2]": {"system": "UO-31", "experiment": "Cytotoxicity against human UO31 cells assessed as growth inhibition after 48 hrs by sulforhodamine B assay", "details": "UO-31, 48 h"}, "UACC-257": {"system": "UACC-257", "experiment": "Cytotoxicity against human UACC257 cells assessed as cell growth at 0.01 uM after 48 hrs by sulforhodamine B assay relative to control", "details": "UACC-257, 48 h, read-out: Activity"}, "SW-620 [3]": {"system": "SW-620", "experiment": "Cytotoxicity against human SW620 cells assessed as cell growth at 0.01 uM after 48 hrs by sulforhodamine B assay relative to control", "details": "SW-620, 48 h, read-out: Activity"}, "HCT-116 [4]": {"system": "HCT-116", "experiment": "Cytotoxicity against human HCT116 cells assessed as cell growth at 0.01 uM after 48 hrs by sulforhodamine B assay relative to control", "details": "HCT-116, 48 h, read-out: Activity"}, "NCI-H226 [5]": {"system": "NCI-H226", "experiment": "Cytotoxicity against human NCI-H226 cells assessed as cell growth at 0.1 uM after 48 hrs by sulforhodamine B assay relative to control", "details": "NCI-H226, 48 h, read-out: Activity"}, "NCI-H23": {"system": "NCI-H23", "experiment": "Cytotoxicity against human NCI-H23 cells assessed as cell growth at 0.1 uM after 48 hrs by sulforhodamine B assay relative to control", "details": "NCI-H23, 48 h, read-out: Activity"}, "NCI-H460 [6]": {"system": "NCI-H460", "experiment": "Cytotoxicity against human NCI-H460 cells assessed as cell growth at 0.1 uM after 48 hrs by sulforhodamine B assay relative to control", "details": "NCI-H460, 48 h, read-out: Activity"}, "NCI-H522": {"system": "NCI-H522", "experiment": "Cytotoxicity against human NCI-H522 cells assessed as cell growth at 0.1 uM after 48 hrs by sulforhodamine B assay relative to control", "details": "NCI-H522, 48 h, read-out: Activity"}, "HCT-116 [7]": {"system": "HCT-116", "experiment": "Cytotoxicity against human HCT116 cells assessed as cell growth at 0.1 uM after 48 hrs by sulforhodamine B assay relative to control", "details": "HCT-116, 48 h, read-out: Activity"}, "SW-620 [8]": {"system": "SW-620", "experiment": "Cytotoxicity against human SW620 cells assessed as cell growth at 0.1 uM after 48 hrs by sulforhodamine B assay relative to control", "details": "SW-620, 48 h, read-out: Activity"}, "SK-MEL-5": {"system": "SK-MEL-5", "experiment": "Cytotoxicity against human SK-MEL-5 cells assessed as cell growth at 0.1 uM after 48 hrs by sulforhodamine B assay relative to control", "details": "SK-MEL-5, 48 h, read-out: Activity"}, "OVCAR-8 [9]": {"system": "OVCAR-8", "experiment": "Cytotoxicity against human OVCAR8 cells assessed as cell growth at 0.1 uM after 48 hrs by sulforhodamine B assay relative to control", "details": "OVCAR-8, 48 h, read-out: Activity"}, "ACHN": {"system": "ACHN", "experiment": "Cytotoxicity against human ACHN cells assessed as cell growth at 0.1 uM after 48 hrs by sulforhodamine B assay relative to control", "details": "read-out: Activity"}, "PC-3 [10]": {"system": "PC-3", "experiment": "Cytotoxicity against human PC3 cells assessed as cell growth at 0.1 uM after 48 hrs by sulforhodamine B assay relative to control", "details": "PC-3, 48 h, read-out: Activity"}, "MCF7": {"system": "MCF7", "experiment": "Cytotoxicity against human MCF7 cells assessed as cell growth at 0.1 uM after 48 hrs by sulforhodamine B assay relative to control", "details": "MCF7, 48 h, read-out: Activity"}, "HL-60(TB) [11]": {"system": "HL-60(TB)", "experiment": "Cytotoxicity against human HL-60(TB) cells assessed as cell growth at 1 uM after 48 hrs by sulforhodamine B assay relative to control", "details": "HL-60, 48 h, read-out: Activity"}, "K562": {"system": "K562", "experiment": "Cytotoxicity against human K562 cells assessed as cell growth at 1 uM after 48 hrs by sulforhodamine B assay relative to control", "details": "K562, 48 h, read-out: Activity"}, "NCI-H226 [12]": {"system": "NCI-H226", "experiment": "Cytotoxicity against human NCI-H226 cells assessed as cell growth at 1 uM after 48 hrs by sulforhodamine B assay relative to control", "details": "NCI-H226, 48 h, read-out: Activity"}, "NCI-H460 [13]": {"system": "NCI-H460", "experiment": "Cytotoxicity against human NCI-H460 cells assessed as cell growth at 1 uM after 48 hrs by sulforhodamine B assay relative to control", "details": "NCI-H460, 48 h, read-out: Activity"}, "SF-539": {"system": "SF-539", "experiment": "Cytotoxicity against human SF539 cells assessed as cell growth at 1 uM after 48 hrs by sulforhodamine B assay relative to control", "details": "SF-539, 48 h, read-out: Activity"}, "BT-549": {"system": "BT-549", "experiment": "Cytotoxicity against human BT549 cells assessed as cell growth at 1 uM after 48 hrs by sulforhodamine B assay relative to control", "details": "BT-549, 48 h, read-out: Activity"}, "KM12": {"system": "KM12", "experiment": "Cytotoxicity against human KM12 cells assessed as cell growth at 10 uM after 48 hrs by sulforhodamine B assay relative to control", "details": "KM12, 48 h, read-out: Activity"}, "IGROV-1": {"system": "IGROV-1", "experiment": "Cytotoxicity against human IGROV1 cells assessed as cell growth at 10 uM after 48 hrs by sulforhodamine B assay relative to control", "details": "IGROV-1, 48 h, read-out: Activity"}, "UO-31 [14]": {"system": "UO-31", "experiment": "Cytotoxicity against human UO31 cells assessed as cell growth at 10 uM after 48 hrs by sulforhodamine B assay relative to control", "details": "UO-31, 48 h, read-out: Activity"}, "T47D": {"system": "T47D", "experiment": "Cytotoxicity against human T47D cells assessed as cell growth at 10 uM after 48 hrs by sulforhodamine B assay relative to control", "details": "read-out: Activity"}, "A549": {"system": "A549", "experiment": "Cytotoxicity against human A549/ATCC cells assessed as cell growth at 100 uM after 48 hrs by sulforhodamine B assay relative to control", "details": "A549, 48 h, read-out: Activity"}, "COLO 205": {"system": "COLO 205", "experiment": "Cytotoxicity against human COLO205 cells assessed as cell growth at 100 uM after 48 hrs by sulforhodamine B assay relative to control", "details": "COLO 205, 48 h, read-out: Activity"}, "OVCAR-8 [15]": {"system": "OVCAR-8", "experiment": "Cytotoxicity against human OVCAR8 cells assessed as cell growth at 100 uM after 48 hrs by sulforhodamine B assay relative to control", "details": "OVCAR-8, 48 h, read-out: Activity"}, "A498": {"system": "A498", "experiment": "Cytotoxicity against human A498 cells assessed as cell growth at 100 uM after 48 hrs by sulforhodamine B assay relative to control", "details": "A498, 48 h, read-out: Activity"}, "PC-3 [16]": {"system": "PC-3", "experiment": "Cytotoxicity against human PC3 cells assessed as cell growth at 100 uM after 48 hrs by sulforhodamine B assay relative to control", "details": "PC-3, 48 h, read-out: Activity"}, "DU-145": {"system": "DU-145", "experiment": "Cytotoxicity against human DU145 cells assessed as cell growth at 100 uM after 48 hrs by sulforhodamine B assay relative to control", "details": "DU-145, 48 h, read-out: Activity"}}}
{"smiles": "COc1cc(-c2cc(/C=C/C(=O)c3ccc4c(c3)OCO4)[nH]n2)cc(OC)c1OC", "values": [{"measurement": "LC50", "setting": "HL-60(TB) [1]", "result": "> 100", "unit": "µM"}, {"measurement": "TGI", "setting": "HL-60(TB) [1]", "result": 6.36, "unit": "µM"}, {"measurement": "LC50", "setting": "HCC 2998", "result": 6.43, "unit": "µM"}, {"measurement": "TGI", "setting": "HCC 2998", "result": 3.54, "unit": "µM"}, {"measurement": "TGI", "setting": "SNB-19", "result": "> 100", "unit": "µM"}, {"measurement": "CC50", "setting": "SNB-19; read-out: LC50 (the source's name)", "result": "> 100", "unit": "µM"}, {"measurement": "LC50", "setting": "SK-OV-3", "result": "> 100", "unit": "µM"}, {"measurement": "TGI", "setting": "SK-OV-3", "result": 26.1, "unit": "µM"}, {"measurement": "LC50", "setting": "UO-31 [2]", "result": 26.3, "unit": "µM"}, {"measurement": "TGI", "setting": "UO-31 [2]", "result": 5.44, "unit": "µM"}, {"measurement": "growth at 0.01 µM", "setting": "UACC-257", "result": 86, "unit": "%"}, {"measurement": "growth at 0.01 µM", "setting": "SW-620 [3]", "result": 99, "unit": "%"}, {"measurement": "growth at 0.01 µM", "setting": "HCT-116 [4]", "result": 104, "unit": "%"}, {"measurement": "growth at 0.1 µM", "setting": "NCI-H226 [5]", "result": 98, "unit": "%"}, {"measurement": "growth at 0.1 µM", "setting": "NCI-H23", "result": 93, "unit": "%"}, {"measurement": "growth at 0.1 µM", "setting": "NCI-H460 [6]", "result": 105, "unit": "%"}, {"measurement": "growth at 0.1 µM", "setting": "NCI-H522", "result": 92, "unit": "%"}, {"measurement": "growth at 0.1 µM", "setting": "HCT-116 [7]", "result": 101, "unit": "%"}, {"measurement": "growth at 0.1 µM", "setting": "SW-620 [8]", "result": 96, "unit": "%"}, {"measurement": "growth at 0.1 µM", "setting": "SK-MEL-5", "result": 97, "unit": "%"}, {"measurement": "growth at 0.1 µM", "setting": "OVCAR-8 [9]", "result": 99, "unit": "%"}, {"measurement": "growth at 0.1 µM", "setting": "ACHN", "result": 109, "unit": "%"}, {"measurement": "growth at 0.1 µM", "setting": "PC-3 [10]", "result": 99, "unit": "%"}, {"measurement": "growth at 0.1 µM", "setting": "MCF7", "result": 94, "unit": "%"}, {"measurement": "growth at 1 µM", "setting": "HL-60(TB) [11]", "result": 86, "unit": "%"}, {"measurement": "growth at 1 µM", "setting": "K562", "result": 102, "unit": "%"}, {"measurement": "growth at 1 µM", "setting": "NCI-H226 [12]", "result": 89, "unit": "%"}, {"measurement": "growth at 1 µM", "setting": "NCI-H460 [13]", "result": 93, "unit": "%"}, {"measurement": "growth at 1 µM", "setting": "SF-539", "result": 86, "unit": "%"}, {"measurement": "growth at 1 µM", "setting": "BT-549", "result": 92, "unit": "%"}, {"measurement": "growth at 10 µM", "setting": "KM12", "result": -69, "unit": "%"}, {"measurement": "growth at 10 µM", "setting": "IGROV-1", "result": 29, "unit": "%"}, {"measurement": "growth at 10 µM", "setting": "UO-31 [14]", "result": -29, "unit": "%"}, {"measurement": "growth at 10 µM", "setting": "T47D", "result": 6, "unit": "%"}, {"measurement": "growth at 100 µM", "setting": "A549", "result": 8, "unit": "%"}, {"measurement": "growth at 100 µM", "setting": "COLO 205", "result": -100, "unit": "%"}, {"measurement": "growth at 100 µM", "setting": "OVCAR-8 [15]", "result": -33, "unit": "%"}, {"measurement": "growth at 100 µM", "setting": "A498", "result": -38, "unit": "%"}, {"measurement": "growth at 100 µM", "setting": "PC-3 [16]", "result": -38, "unit": "%"}, {"measurement": "growth at 100 µM", "setting": "DU-145", "result": -15, "unit": "%"}]}
